“And” between values parts separate entries of the source, which are not always exact repeats. Equal entries are not always repeated. Inconclusive results and toxic doses are left out. The calls were made as follows: active = survival T/C of 150% or more; inactive = T/C below 125% in these data.
Test system: CD2F1 mice, L1210 leukemia ip, survival T/C
Assay: NCI In Vivo Anticancer Drug Screen. Data for tumor model L1210 Leukemia (intraperitoneal) in CD2F1 (CDF1) mice
Details: endpoint: mean survival time, higher = longer survival
Method in brief: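 Ratio T/C, where T is the treated-group value and C the vehicle-dosed control value, from mice implanted with a transplantable tumor.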

[1] = dose: 100.0 mg/kg/injection, schedule: Q01DX001 (ip), vehicle: saline
[2] = dose: 200.0 mg/kg/injection, schedule: Q01DX001 (ip), vehicle: saline
[3] = dose: 400.0 mg/kg/injection, schedule: Q01DX001 (ip), vehicle: saline
[4] = dose: 50.0 mg/kg/injection, schedule: Q01DX009 (ip), vehicle: saline with Tween-80
[5] = dose: 100.0 mg/kg/injection, schedule: Q01DX009 (ip), vehicle: saline with Tween-80
[6] = dose: 200.0 mg/kg/injection, schedule: Q01DX009 (ip), vehicle: saline with Tween-80
[7] = dose: 400.0 mg/kg/injection, schedule: Q01DX009 (ip), vehicle: saline with Tween-80
[8] = dose: 100.0 mg/kg/injection, schedule: Q01DX001 (ip), vehicle: saline with Tween-80
[9] = dose: 200.0 mg/kg/injection, schedule: Q01DX001 (ip), vehicle: saline with Tween-80
[10] = dose: 400.0 mg/kg/injection, schedule: Q01DX001 (ip), vehicle: saline with Tween-80
[11] = dose: 100.0 mg/kg/injection, schedule: Q01DX009 (ip), vehicle: saline
[12] = dose: 200.0 mg/kg/injection, schedule: Q01DX009 (ip), vehicle: saline
[13] = dose: 100.0 mg/kg/injection, schedule: Q04DX003 (ip), vehicle: saline with Tween-80
[14] = dose: 200.0 mg/kg/injection, schedule: Q04DX003 (ip), vehicle: saline with Tween-80
[15] = dose: 50.0 mg/kg/injection, schedule: Q01DX009 (ip), vehicle: saline

Measured: T/C

NC(N)=NCCCC(N=Cc1ccccc1)C(=O)O (centres undefined)
inactive: [1] 102 % of control | [2] 102 % of control | [3] 90 % of control

COc1ccc2ccccc2c1C1/C(=N/O)CCc2ccccc21 (centres undefined)
inactive: dose: 12.5 mg/kg/injection, schedule: Q01DX009 (ip), vehicle: other 98 % of control | dose: 25.0 mg/kg/injection, schedule: Q01DX009 (ip), vehicle: other 94 % of control | dose: 50.0 mg/kg/injection, schedule: Q01DX009 (ip), vehicle: other 98 % of control | dose: 100.0 mg/kg/injection, schedule: Q01DX009 (ip), vehicle: other 98 % of control | dose: 200.0 mg/kg/injection, schedule: Q01DX009 (ip), vehicle: other 96 % of control

C/C=C(\C)C(C)O (centres undefined)
inactive: dose: 50.0 mg/kg/injection, schedule: Q01DX005 (ip), vehicle: saline 87 % of control | [4] 98 % of control | dose: 50.0 mg/kg/injection, schedule: Q04DX002 (ip), vehicle: saline + alcohol 92 % of control | dose: 100.0 mg/kg/injection, schedule: Q01DX005 (ip), vehicle: saline 102 % of control | [5] 98 % of control | dose: 100.0 mg/kg/injection, schedule: Q04DX002 (ip), vehicle: saline + alcohol 103 % of control | dose: 200.0 mg/kg/injection, schedule: Q01DX005 (ip), vehicle: saline 94 % of control | [6] 95 % of control | dose: 200.0 mg/kg/injection, schedule: Q04DX002 (ip), vehicle: saline + alcohol 101 % of control | dose: 400.0 mg/kg/injection, schedule: Q01DX005 (ip), vehicle: saline 94 % of control | [7] 102 % of control | dose: 400.0 mg/kg/injection, schedule: Q04DX002 (ip), vehicle: saline + alcohol 103 % of control

CCCc1ccc(Nc2c3ccccc3nc3ccccc23)cc1
inactive: dose: 100.0 mg/kg/injection, schedule: Q04DX002 (ip), vehicle: saline with Tween-80 107 % of control | dose: 200.0 mg/kg/injection, schedule: Q04DX002 (ip), vehicle: saline with Tween-80 114 % of control | dose: 400.0 mg/kg/injection, schedule: Q04DX002 (ip), vehicle: saline with Tween-80 105 % of control

CC(NCCN1CC1)C1CC1 (centres undefined)
inactive: dose: 17.6 mg/kg/injection, schedule: Q01DX009 (ip), vehicle: saline 94 % of control | dose: 26.4 mg/kg/injection, schedule: Q01DX009 (ip), vehicle: saline 100 % of control | dose: 40.0 mg/kg/injection, schedule: Q01DX009 (ip), vehicle: saline 105 % of control | dose: 60.0 mg/kg/injection, schedule: Q01DX009 (ip), vehicle: saline 117 % of control

Nc1nc(N)c(CCCOc2ccc([N+](=O)[O-])cc2Cl)c(N)n1
inactive: dose: 100.0 mg/kg/injection, schedule: Q04DX002 (ip), vehicle: Klucel (hydroxypropylcellulose) (HPC) 90 % of control | dose: 200.0 mg/kg/injection, schedule: Q04DX002 (ip), vehicle: Klucel (hydroxypropylcellulose) (HPC) 94 % of control | dose: 400.0 mg/kg/injection, schedule: Q04DX002 (ip), vehicle: Klucel (hydroxypropylcellulose) (HPC) 90 % of control

C1CCC2C[N-]CCC2C1.C1CCC2C[N-]CCC2C1.C1CCC2C[N-]CCC2C1.C1CCC2C[N-]CCC2C1.[Cl][Rh][Cl] (centres undefined)
inactive: dose: 0.25 mg/kg/injection, schedule: Q01DX009 (ip), vehicle: saline 98 % of control | dose: 0.5 mg/kg/injection, schedule: Q01DX009 (ip), vehicle: saline with Tween-80 92 % of control | dose: 0.5 mg/kg/injection, schedule: Q01DX009 (ip), vehicle: saline 104 % of control | dose: 1.0 mg/kg/injection, schedule: Q01DX009 (ip), vehicle: saline with Tween-80 96 % of control | dose: 1.0 mg/kg/injection, schedule: Q01DX009 (ip), vehicle: saline 104 % of control | dose: 2.0 mg/kg/injection, schedule: Q01DX009 (ip), vehicle: saline with Tween-80 96 % of control | dose: 2.0 mg/kg/injection, schedule: Q01DX009 (ip), vehicle: saline 105 % of control | dose: 4.0 mg/kg/injection, schedule: Q01DX009 (ip), vehicle: saline 113 % of control | dose: 8.0 mg/kg/injection, schedule: Q01DX009 (ip), vehicle: saline 115 % of control

O=[N+]([O-])c1ccc(N=C(Cl)N2CCCCC2)cc1
inactive: [1] 109 % of control | [2] 103 % of control | [3] 107 % of control

CC(=O)OC1(C)CC(C)(C)N=N1 (centres undefined)
inactive: dose: 25.0 mg/kg/injection, schedule: Q01DX009 (ip), vehicle: Klucel (hydroxypropylcellulose) (HPC) 97 % of control | dose: 50.0 mg/kg/injection, schedule: Q01DX009 (ip), vehicle: Klucel (hydroxypropylcellulose) (HPC) 99 % of control | dose: 100.0 mg/kg/injection, schedule: Q01DX009 (ip), vehicle: Klucel (hydroxypropylcellulose) (HPC) 97 % of control | dose: 200.0 mg/kg/injection, schedule: Q01DX009 (ip), vehicle: Klucel (hydroxypropylcellulose) (HPC) 97 % of control | dose: 400.0 mg/kg/injection, schedule: Q01DX009 (ip), vehicle: Klucel (hydroxypropylcellulose) (HPC) 97 % of control

C1C2OC2CC2OC12 (centres undefined)
inactive: [8] 97 % of control | [9] 97 % of control | [10] 98 % of control

CC(O)c1cccc([N+](=O)[O-])c1 (centres undefined)
inactive: [8] 93 % of control | [9] 97 % of control | [10] 93 % of control

NC(N)=Nc1cccc(OCCCOc2ccccc2)c1
inactive: dose: 18.75 mg/kg/injection, schedule: Q01DX001 (ip), vehicle: saline with Tween-80 102 % of control | dose: 37.5 mg/kg/injection, schedule: Q01DX001 (ip), vehicle: saline with Tween-80 98 % of control | dose: 75.0 mg/kg/injection, schedule: Q01DX001 (ip), vehicle: saline with Tween-80 97 % of control

CNC(=O)/C(=C\c1ccccc1)NC(C)=O
inactive: [5] 103 % of control | [6] 98 % of control | [7] 98 % of control

O=C1CCC(=O)N1CO
inactive: [11] 102 % of control | dose: 100.0 mg/kg/injection, schedule: Q04DX003 (ip), vehicle: saline 106 % of control | [12] 109 % of control | dose: 200.0 mg/kg/injection, schedule: Q04DX003 (ip), vehicle: saline 101 % of control | dose: 400.0 mg/kg/injection, schedule: Q01DX009 (ip), vehicle: saline 111 % of control | dose: 400.0 mg/kg/injection, schedule: Q04DX003 (ip), vehicle: saline 116 % of control

O=S(=O)(OCC(COS(=O)(=O)c1ccccc1)(COS(=O)(=O)c1ccccc1)COS(=O)(=O)c1ccccc1)c1ccccc1
inactive: [4] 96 % of control | [5] 97 % of control | [13] 86 % of control | [6] 95 % of control | [14] 89 % of control

OCCN=Cc1ccccc1
inactive: dose: 25.0 mg/kg/injection, schedule: Q01DX009 (ip), vehicle: saline 95 % of control | [15] 92 % of control | [11] 97 % of control | [13] 106 % of control

CC(=O)SCCC(=O)O
inactive: dose: 25.0 mg/kg/injection, schedule: Q04DX003 (ip), vehicle: saline 96 % of control | dose: 50.0 mg/kg/injection, schedule: Q04DX003 (ip), vehicle: saline 104 % of control

CC(C)(C)NC(=O)C1C2CCC(C2)C1C(=O)NC(C)(C)C (centres undefined)
inactive: [13] 98 % of control | [14] 102 % of control | dose: 400.0 mg/kg/injection, schedule: Q04DX003 (ip), vehicle: saline with Tween-80 98 % of control

CCOC(=O)NC(=O)/C=C/N1CCCC1
inactive: [15] 102 % of control | [11] 97 % of control | [12] 94 % of control

CC(O)CNCCNc1ccc(NCCNCC(C)O)c2c1C(=O)c1c(O)ccc(O)c1C2=O (centres undefined)
active: dose: 8.0 mg/kg/injection, schedule: Q01DX005 (ip), vehicle: water 165 % of control
inactive: dose: 0.25 mg/kg/injection, schedule: Q01DX005 (ip), vehicle: water 123 % of control | dose: 0.5 mg/kg/injection, schedule: Q01DX005 (ip), vehicle: water 123 % of control

S=P(N1CC1)(N1CC1)N1CC1.[Cl-].[Cl-].[NH2-].[NH2-].[Pt+4]
active: dose: 3.13 mg/kg/injection, schedule: Q01DX009 (ip), vehicle: Klucel (hydroxypropylcellulose) (HPC) 153 % of control
inactive: dose: 0.78 mg/kg/injection, schedule: Q01DX009 (ip), vehicle: Klucel (hydroxypropylcellulose) (HPC) 112 % of control and 101 % of control | dose: 1.56 mg/kg/injection, schedule: Q01DX009 (ip), vehicle: Klucel (hydroxypropylcellulose) (HPC) 114 % of control and 115 % of control and 107 % of control | dose: 6.25 mg/kg/injection, schedule: Q01DX009 (ip), vehicle: Klucel (hydroxypropylcellulose) (HPC) 111 % of control
